Patent US7767659B2, “Synthesis of naturally occurring ecteinascidins and related compounds” (Pharma Mar, S.A., priority 2002, dated 2010)
Read-outs that look alike come from different tables or passages of the source.

Key:
HT-29 = assay: cells; conditions: for GI50: read-out: GI50 HT29; for CC50: read-out: LC50 HT29
Summary of the method: (§1)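 Colorimetric SRB read (490 nm) on triplicate wells after 48 h at 37 °C, 5% CO2. Dose range 10 to 10^−8 μg/ml; 5×10^3 cells/well pre-attached 18 h.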

A-549 = assay: cells; conditions: for GI50: read-out: GI50 A549; for CC50: read-out: LC50 A549
Summary of the method: as §1

LoVo = assay: cells
Summary of the method: as §1

IGROV-1 = assay: Inhibition of cells growth by colorimetric assay (SRB)
Summary of the method: as §1

SK-MEL-28 = assay: as above; conditions: for GI50: read-out: GI50 MEL-28; for CC50: read-out: LC50 MEL-28
Summary of the method: as §1

HeLa-APL = assay: as above
Summary of the method: as §1

LNCaP = assay: as above; conditions: for GI50: read-out: GI50 LNCAP; for CC50: read-out: LC50 LNCAP
Summary of the method: as §1

HeLa = assay: as above
Summary of the method: as §1

K-562 = assay: as above
Summary of the method: as §1

DU-145 = assay: as above; conditions: for GI50: read-out: GI50 DU145; for CC50: read-out: LC50 DU145
Summary of the method: as §1

LoVo-Dox = assay: as above
Summary of the method: as §1

SK-BR-3 = assay: as above
Summary of the method: as §1

PANC-1 = assay: as above
Summary of the method: as §1

IGROV-ET = assay: as above
Summary of the method: as §1

COC1=C(C)C(=O)C2=C(C1=O)[C@@H]1C3[C@@H]4SC[C@]5(NCCc6c5[nH]c5ccccc65)C(=O)OC[C@@H](c5c6c(c(C)c(OC(C)=O)c54)OCO6)N3[C@@H](C#N)[C@H](C2)N1C (stereo partly drawn) [compound 23]
GI50 (HT-29; Homo sapiens, HT-29, 48 h): 51.2 nM
CC50 (HT-29; Homo sapiens, HT-29, 48 h): 12900 nM
IC (TGI) (HT-29; Homo sapiens, HT-29, 48 h, read-out: TGI HT29): 215 nM
GI50 (A-549; Homo sapiens, A549, 48 h): 60.6 nM
CC50 (A-549; Homo sapiens, A549, 48 h): 785 nM
IC (TGI) (A-549; Homo sapiens, A549, 48 h, read-out: TGI A549): 211 nM
GI50 (LoVo; Homo sapiens, LoVo, 48 h, read-out: GI50 LOVO): 276 nM
CC50 (LoVo; Homo sapiens, LoVo, 48 h, read-out: LC50 LOVO): 983 nM
IC (TGI) (LoVo; Homo sapiens, LoVo, 48 h, read-out: TGI LOVO): 522 nM
GI50 (IGROV-1; Homo sapiens, IGROV-1, 48 h, read-out: GI50 IGROV): 350 nM
CC50 (IGROV-1; Homo sapiens, IGROV-1, 48 h, read-out: LC50 IGROV): 1130 nM
IC (TGI) (IGROV-1; Homo sapiens, IGROV-1, 48 h, read-out: TGI IGROV): 627 nM
GI50 (SK-MEL-28; Homo sapiens, SK-MEL-28, 48 h): 247 nM
CC50 (SK-MEL-28; Homo sapiens, SK-MEL-28, 48 h): 857 nM
IC (TGI) (SK-MEL-28; Homo sapiens, SK-MEL-28, 48 h, read-out: TGI MEL-28): 460 nM
GI50 (HeLa-APL; Homo sapiens, 48 h, read-out: GI50 HELA-APL): 35.6 nM
CC50 (HeLa-APL; Homo sapiens, 48 h, read-out: LC50 HELA-APL): 102 nM
IC (TGI) (HeLa-APL; Homo sapiens, 48 h, read-out: TGI HELA-APL): 60.3 nM
GI50 (LNCaP; Homo sapiens, LNCaP, 48 h): 153 nM
CC50 (LNCaP; Homo sapiens, LNCaP, 48 h): 657 nM
IC (TGI) (LNCaP; Homo sapiens, LNCaP, 48 h, read-out: TGI LNCAP): 318 nM
GI50 (HeLa; Homo sapiens, HeLa, 48 h, read-out: GI50 HELA): 38.2 nM
CC50 (HeLa; Homo sapiens, HeLa, 48 h, read-out: LC50 HELA): 114 nM
IC (TGI) (HeLa; Homo sapiens, HeLa, 48 h, read-out: TGI HELA): 66 nM
GI50 (K-562; Homo sapiens, K562, 48 h, read-out: GI50 K562): 20.3 nM
CC50 (K-562; Homo sapiens, K562, 48 h, read-out: LC50 K562): 1400 nM
IC (TGI) (K-562; Homo sapiens, K562, 48 h, read-out: TGI K562): 73.3 nM
GI50 (DU-145; Homo sapiens, DU-145, 48 h): 58.5 nM
CC50 (DU-145; Homo sapiens, DU-145, 48 h): 4450 nM
IC (TGI) (DU-145; Homo sapiens, DU-145, 48 h, read-out: TGI DU145): 143 nM
GI50 (LoVo-Dox; Homo sapiens, 48 h, read-out: GI50 LOVO-DOX): 661 nM
CC50 (LoVo-Dox; Homo sapiens, 48 h, read-out: LC50 LOVO-DOX): 12900 nM
IC (TGI) (LoVo-Dox; Homo sapiens, 48 h, read-out: TGI LOVO-DOX): 7460 nM
GI50 (SK-BR-3; Homo sapiens, SK-BR-3, 48 h, read-out: GI50 SK-BR3): 13.1 nM
CC50 (SK-BR-3; Homo sapiens, SK-BR-3, 48 h, read-out: LC50 SK-BR3): 645 nM
IC (TGI) (SK-BR-3; Homo sapiens, SK-BR-3, 48 h, read-out: TGI SK-BR3): 87.7 nM
GI50 (PANC-1; Homo sapiens, PANC-1, 48 h, read-out: GI50 PANC-1): 509 nM
CC50 (PANC-1; Homo sapiens, PANC-1, 48 h, read-out: LC50 PANC-1): 12900 nM
IC (TGI) (PANC-1; Homo sapiens, PANC-1, 48 h, read-out: TGI PANC-1): 1260 nM
GI50 (IGROV-ET; Homo sapiens, 48 h, read-out: GI50 IGROV-ET): 456 nM
CC50 (IGROV-ET; Homo sapiens, 48 h, read-out: LC50 IGROV-ET): 1260 nM
IC (TGI) (IGROV-ET; Homo sapiens, 48 h, read-out: TGI IGROV-ET): 760 nM

COc1c(C)cc2c(c1O)C1C3C4SCC(NC(C)=O)C(=O)OCC(c5c6c(c(C)c(OC(C)=O)c54)OCO6)N3C(C#N)C(C2)N1C(C)=O (stereo not drawn) [compound 35]
TGI HT29 (HT-29; HT29, SRB, 48 hours exposure): 8.18E−06 Molar
GI50 (HT-29; HT29, SRB, 48 hours exposure): 602 nM
CC50 (HT-29; HT29, SRB, 48 hours exposure): 14400 nM
TGI A549 (A-549; A549, SRB, 48 hours exposure): 5.96E−06 Molar
GI50 (A-549; A549, SRB, 48 hours exposure): 2930 nM
CC50 (A-549; A549, SRB, 48 hours exposure): 12100 nM
LOVO TGI (LoVo; SRB assay, 48 hours exposure, LOVO, total growth inhibition): 2.14E−06 Molar
GI50 (LoVo; read-out: LOVO GI50, SRB assay, 48 hours exposure, LOVO): 564 nM
CC50 (LoVo; read-out: LOVO LC50, SRB assay, 48 hours exposure, LOVO, cell killing): 14400 nM
IGROV TGI (IGROV-1; SRB assay, 48 hours exposure, IGROV, total growth inhibition): 1.69E−06 Molar
GI50 (IGROV-1; read-out: IGROV GI50, SRB assay, 48 hours exposure, IGROV): 420 nM
CC50 (IGROV-1; read-out: IGROV LC50, SRB assay, 48 hours exposure, IGROV, cell killing): 8630 nM
TGI MEL-28 (SK-MEL-28; MEL-28, SRB, 48 hours exposure): 8.63E−07 Molar
GI50 (SK-MEL-28; MEL-28, SRB, 48 hours exposure): 390 nM
CC50 (SK-MEL-28; MEL-28, SRB, 48 hours exposure): 3190 nM
HELA-APL TGI (HeLa-APL; SRB assay, 48 hours exposure, HELA-APL, total growth inhibition): 1.09E−06 Molar
GI50 (HeLa-APL; read-out: HELA-APL GI50, SRB assay, 48 hours exposure, HELA-APL): 458 nM
CC50 (HeLa-APL; read-out: HELA-APL LC50, SRB assay, 48 hours exposure, HELA-APL, cell killing): 5920 nM
TGI LNCAP (LNCaP; LNCAP, SRB, 48 hours exposure): 3.97E−07 Molar
GI50 (LNCaP; LNCAP, SRB, 48 hours exposure): 189 nM
CC50 (LNCaP; LNCAP, SRB, 48 hours exposure): 834 nM
HELA TGI (HeLa; SRB assay, 48 hours exposure, HELA, total growth inhibition): 8.37E−07 Molar
GI50 (HeLa; read-out: HELA GI50, SRB assay, 48 hours exposure, HELA): 396 nM
CC50 (HeLa; read-out: HELA LC50, SRB assay, 48 hours exposure, HELA, cell killing): 3390 nM
K562 TGI (K-562; SRB assay, 48 hours exposure, K562, total growth inhibition): 1.13E−06 Molar
GI50 (K-562; read-out: K562 GI50, SRB assay, 48 hours exposure, K562): 193 nM
CC50 (K-562; read-out: K562 LC50, SRB assay, 48 hours exposure, K562, cell killing): 9770 nM
TGI DU145 (DU-145; DU145, SRB, 48 hours exposure): 1.20E−06 Molar
GI50 (DU-145; DU145, SRB, 48 hours exposure): 570 nM
CC50 (DU-145; DU145, SRB, 48 hours exposure): 10300 nM
LOVO-DOX TGI (LoVo-Dox; SRB assay, 48 hours exposure, LOVO-DOX, total growth inhibition): 1.44E−05 Molar
GI50 (LoVo-Dox; read-out: LOVO-DOX GI50, SRB assay, 48 hours exposure, LOVO-DOX): 5750 nM
CC50 (LoVo-Dox; read-out: LOVO-DOX LC50, SRB assay, 48 hours exposure, LOVO-DOX, cell killing): 14400 nM
SK-BR3 TGI (SK-BR-3; SRB assay, 48 hours exposure, SK-BR3, total growth inhibition): 1.10E−06 Molar
GI50 (SK-BR-3; read-out: SK-BR3 GI50, SRB assay, 48 hours exposure, SK-BR3): 396 nM
CC50 (SK-BR-3; read-out: SK-BR3 LC50, SRB assay, 48 hours exposure, SK-BR3, cell killing): 9350 nM
PANC-1 TGI (PANC-1; SRB assay, 48 hours exposure, PANC-1, total growth inhibition): 1.41E−06 Molar
GI50 (PANC-1; read-out: PANC-1 GI50, SRB assay, 48 hours exposure, PANC-1): 471 nM
CC50 (PANC-1; read-out: PANC-1 LC50, SRB assay, 48 hours exposure, PANC-1, cell killing): 14400 nM
IGROV-ET TGI (IGROV-ET; SRB assay, 48 hours exposure, IGROV-ET, total growth inhibition): 6.35E−06 Molar
GI50 (IGROV-ET; read-out: IGROV-ET GI50, SRB assay, 48 hours exposure, IGROV-ET): 2300 nM
CC50 (IGROV-ET; read-out: IGROV-ET LC50, SRB assay, 48 hours exposure, IGROV-ET, cell killing): 14400 nM
